Assay results taken from US7235584B2, “Non-psychotropic cannabinoids” (Pharmos Corporation, priority 2000, dated 2007).

Columns and labels:
[1] = tested on: T1, nitric oxide synthase (NOS); test: Inhibition of nitric oxide synthase, fluorimetric nitrite assay in LPS-stimulated macrophage supernatants; format: cell-based; details: macrophage cell cultures
T1 construct: endogenous in cells
Experimental: As one aspect of the anti-oxidative potential of the novel analogs they were tested for their ability to inhibit the enzyme nitric oxide synthase (NOS). This assay can also serve as another indication of the anti-inflammatory cascade, as well as the anti-oxidative mechanisms.
The final products of NOS are Nitrite (NO2) and Nitrate (NO3). The in vitro fluorimetric assay provides an accurate method for the measurement of the Nitrite, which is the majority of NO products. The principle of the fluorimetric assay is based on the addition of DAN (2,3-diaminonaphthalene) to the aliquots of the supernatants collected from macrophage cell cultures incubated with the new analogs and stimulated with LPS. Following, NaOH was added to convert Nitrite to a fluorescent compound 1(H)-naphthtriazole. The fluorescence was measured immediately in a fluorimeter using excitation wavelength of 365 nm and an emission wavelength of 450 nm.

NMDA receptor = test: [3H]MK-801 displacement radioligand binding, rat forebrain membranes; details: for IC50: displacement of [3H]MK-801, rat forebrain membranes, read-out: NMDA BINDING IC50
Experimental: The identification of possible recognition sites for PRS-211 analogs was carried out by measuring the ability of these PRS-211 analogs to inhibit the binding of MK-801 to rat forebrain membranes.
Brains were removed from Sprague-Dawley rats no more than 5 min after decapitation. Membrane preparations were isolated according to a procedure described previously (Eshhar et al., Brain Res. 476:57, 1989). Prior to radioligand binding measurements, endogenous glutamate present in membranes was removed from the preparation by subjecting the membranes to 3–4 successive washings in 10 mM Tris HCl pH 7.2, performed at 4° C.
The specific binding of the new analogs to NMDA receptors was determined by their ability to displace [^3H]MK-801 from NMDA receptor in rat forebrain preparations. Specifically, rat-forebrain membranes (0.1 mg) were incubated for 2 hours at room temperature with 10 nM of tritiated MK-801 and with the PRS-211 compounds at 3 doses each. Non-specific binding was determined by the use of 0.1 mM MK-801. Following the incubation, bound radioligand was separated from unbound by filtration through GF/B filters. The filters were counted in a β-counter and log of analog concentrations versus % of [^3H]MK-801 specific binding was plotted. The IC50 was calculated from this plot.
Binding of [^3H]MK-801 to membranes was carried out in the presence of 30 μM glycine and 10 μM L-glutamate. Membranes (250 μg protein) were resuspended in 50 mM tris-acetate pH 7.4 buffer and incubated with 10 nM [^3H]MK-801, either alone or in the presence of PRS-211 compounds at 0.1–100 μM concentrations for three hours at room temperature (RT). Reaction buffers used in the different radioligand binding studies contained 10% of an ethanol/Emulphor 620/deionized water mixture. The ratio (by volume) of the respective components in the mixture was 20/3/57. This mixture is required for solubilizing PRS-211 compounds at concentrations above 30 μM. Reaction volume was 1 ml. Non-specific [^3H]MK-801 binding was determined in the presence of 100 μM unlabeled MK-801.
Concentration dependence of certain PRS-211 analogs on inhibition of [^3H]MK-801 binding is illustrated in FIG. 1.

TNFα = test: Inhibition of TNFα in LPS-activated macrophage cell cultures (ELISA); format: cell-based
Experimental: Specific aspects of the inflammatory response cascade are mediated by the cytokine TNFα. Inhibition of TNFα production and/or inhibition of TNFα release by the new analogs are assayed in macrophage cell cultures activated with LPS. This serves as another indication of the general anti-inflammatory potential of the novel compounds.
The method for macrophage cell culture growth is identical to the one described in PGE2 assay. Aliquots of the supernatants collected following stimulation with LPS were quantitated for TNFα by enzyme linked immunosorbent assay (ELISA) using HRP conjugated to anti-TNFα antibodies and […] for the colorimetric reaction. The peroxidase catalyzed color reaction was stopped by acidification and the absorbance at 450 nm is measured. The absorbance at this wavelength is proportional to the concentration of TNFα in the sample determined from a standard curve plotting the concentrations of TNFα standards versus their absorbance.

cannabimimetic activity = details: in vivo; cited from earlier work

T1 sequence (P35228 whole entry): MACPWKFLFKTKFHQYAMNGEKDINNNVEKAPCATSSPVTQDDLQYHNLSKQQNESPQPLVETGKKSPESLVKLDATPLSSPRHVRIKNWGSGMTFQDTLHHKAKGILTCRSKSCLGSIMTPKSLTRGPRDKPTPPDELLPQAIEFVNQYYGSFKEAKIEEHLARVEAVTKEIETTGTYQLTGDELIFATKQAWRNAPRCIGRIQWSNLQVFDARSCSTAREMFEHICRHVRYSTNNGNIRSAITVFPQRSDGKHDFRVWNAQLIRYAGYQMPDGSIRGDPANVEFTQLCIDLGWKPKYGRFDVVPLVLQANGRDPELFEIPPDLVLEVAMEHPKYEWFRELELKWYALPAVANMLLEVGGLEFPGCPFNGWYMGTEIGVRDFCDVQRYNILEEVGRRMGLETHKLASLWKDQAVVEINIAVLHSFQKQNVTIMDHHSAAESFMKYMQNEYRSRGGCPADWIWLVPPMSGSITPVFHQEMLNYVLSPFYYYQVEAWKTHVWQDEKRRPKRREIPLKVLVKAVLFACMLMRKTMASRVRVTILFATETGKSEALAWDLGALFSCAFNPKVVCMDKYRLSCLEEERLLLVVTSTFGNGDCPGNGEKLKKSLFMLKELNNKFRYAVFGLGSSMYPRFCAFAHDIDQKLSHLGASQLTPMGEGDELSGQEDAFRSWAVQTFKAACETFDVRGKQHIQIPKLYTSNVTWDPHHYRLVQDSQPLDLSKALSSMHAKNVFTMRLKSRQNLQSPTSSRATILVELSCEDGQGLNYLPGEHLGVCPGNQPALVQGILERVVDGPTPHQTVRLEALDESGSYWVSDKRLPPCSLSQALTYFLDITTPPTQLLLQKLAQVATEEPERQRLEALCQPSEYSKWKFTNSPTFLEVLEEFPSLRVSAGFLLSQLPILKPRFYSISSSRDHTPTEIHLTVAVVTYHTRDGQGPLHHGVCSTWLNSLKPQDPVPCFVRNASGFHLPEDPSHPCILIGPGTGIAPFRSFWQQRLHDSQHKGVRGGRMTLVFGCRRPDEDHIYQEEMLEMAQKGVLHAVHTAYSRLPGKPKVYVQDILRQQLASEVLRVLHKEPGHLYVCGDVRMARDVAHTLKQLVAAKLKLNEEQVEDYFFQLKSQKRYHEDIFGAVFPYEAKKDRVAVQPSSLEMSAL

Row | Compound | inhibition at 10 µM [1] [%] | NMDA receptor binding / affinity (in words) (NMDA receptor) | IC50 (NMDA receptor) [µM] | inhibition at 10 µM (TNFα) [%] | cannabimimetic activity relative to Δ-1-tetrahydrocannabinol (cannabimimetic activity) [times]
1 | CCCCCCC(C)(C)c1cc(O)c2c(c1)OC(C)(C)[C@H]1CC=C(CN3CCC(N4CCCC4)CC3)C[C@H]21 [211,253-000] | 27 | do not exhibit substantial NMDA receptor binding | > 100 | 0 | 
2 | CCCCCCC(C)(C)c1cc(O)c2c(c1)OC(C)(C)[C@H]1CC=C(CN(Cc3ccccc3)c3ccccc3)C[C@H]21 [211,255-000] | 7 | do not exhibit substantial NMDA receptor binding | > 100 | 0 | 
3 | CCCCCCC(C)(C)c1cc(O)c2c(c1)OC(C)(C)[C@@H]1CC=C(CO)C[C@@H]21 [HU-210] |  |  |  |  | ~100
